Patent US20100068150A1, “Selective Caspase Inhibitors” (The Board of Trustees of the Leland Stanford Junior …, priority 2006, published 2010)

What was measured:
Assay type in all cases: biochemical
Caspase-3 = target: T1, Caspase-3 (Homo sapiens, UniProt P42574); test: Kinetic compound screening, progress curve method, caspase-3; settings: for Ki(app) Caspase-3: Table III, Ki(app) = Kass or Kobs/I, 5 nM active caspase-3; for Caspase-3 Ki(app): Table IV
T1 sequence (P42574 29-175 limits assumed): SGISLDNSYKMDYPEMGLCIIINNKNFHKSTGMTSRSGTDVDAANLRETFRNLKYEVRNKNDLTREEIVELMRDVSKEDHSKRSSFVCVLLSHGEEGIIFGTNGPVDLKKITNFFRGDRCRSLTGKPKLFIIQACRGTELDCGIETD
T1 sequence (P42574 176-277 limits assumed): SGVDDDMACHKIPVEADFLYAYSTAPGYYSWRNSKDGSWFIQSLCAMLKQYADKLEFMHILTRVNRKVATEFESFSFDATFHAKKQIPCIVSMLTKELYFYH
Excerpt: (§1) Table III below presents Ki(app) values for select AB compounds. Ki(app) values (also called Kass or Kobs/I) represent the speed of inhibitor binding to a target enzyme. Units are [M^−1s^−1]. NI indicates no inhibition at concentrations tested. Parent compounds AB09, ABo8, and AB07 that include the optimal substrate specificity sequences for caspases-3, […] as determined by Thornberry and colleagues (Thornberry et al., 19970 are included between double lines.
(§2) The inhibitors AB07 (NP-LEHD-AOMK, caspase-9), AB08 (NP-LETD-AOMK, caspase-8), and AB09 (NP-DEVD-AOMK, caspase-3) were synthesized and kinetic inhibition constants (Kiapp) were obtained for all compounds for caspases 3, 7, 8 and 9 using the progress curve method for pseudo-first order reactions kinetics (Salvesen, 1989) (structures shown in Table I). […] Ki(app) values (also called Kass or Kobs/I) represent the speed of inhibitor binding to a target enzyme. Units are [M-1s-1]. NI indicates no inhibition at concentrations tested, ND indicates data not determined, SD indicates standard deviation.
(§3) Compound screening was completed using the progress curve method as described (Salvesen, 1989). All screening was carried out in caspase reaction buffer. The caspase-9 specific compounds AB38, 40, 41 and 42 were screened in caspase reaction buffer and in caspase buffer with 1M sodium citrate instead of sucrose as described (Pop, 2006) The concentrations of active caspases used is as follows: 5 nM active caspase-3, 5 nM active caspase-7, 10 nM active caspase-8, and 50 nM active caspase-9. To ensure full activation, caspases 3/7, 8 and 9 were preincubated at 37° C. for 5, 10, or 40 minutes respectively before kinetic measurements were made.

Caspase-7 = target: T2, Caspase-7 (Homo sapiens, UniProt P55210); test: Kinetic compound screening, progress curve method, caspase-7; settings: for Ki(app) Caspase-7: Table III, Ki(app) = Kass or Kobs/I, 5 nM active caspase-7; for Caspase-7 Ki (app): Table IV
T2 sequence (P55210 1-303): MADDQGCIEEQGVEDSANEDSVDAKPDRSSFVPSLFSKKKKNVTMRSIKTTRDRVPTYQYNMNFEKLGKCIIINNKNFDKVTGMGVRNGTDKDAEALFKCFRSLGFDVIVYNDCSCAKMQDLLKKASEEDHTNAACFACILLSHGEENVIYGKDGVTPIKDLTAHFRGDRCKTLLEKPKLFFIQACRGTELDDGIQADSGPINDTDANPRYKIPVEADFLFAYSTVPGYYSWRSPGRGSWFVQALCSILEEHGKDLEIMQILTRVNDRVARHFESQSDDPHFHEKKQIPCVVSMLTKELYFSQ
Excerpt: as §1, §2, §3

Caspase-8 = Caspase-8 (Homo sapiens, UniProt Q14790); test: Kinetic compound screening, progress curve method, caspase-8; settings: for Ki(app) Caspase-8: Table III, Ki(app) = Kass or Kobs/I, 10 nM active caspase-8; for Caspase-8 Ki (app): Table IV, NI = no inhibition at concentrations tested
Excerpt: as §1, §2, §3

Caspase-9 = target: T3, Caspase-9 (Homo sapiens, UniProt P55211); test: Kinetic compound screening, progress curve method, caspase-9; settings: NI = no inhibition at concentrations tested; for Ki(app) Caspase-9: Table III, Ki(app) = Kass or Kobs/I, 50 nM active caspase-9; for Caspase-9 Ki (app): Table IV
T3 sequence (P55211 1-416): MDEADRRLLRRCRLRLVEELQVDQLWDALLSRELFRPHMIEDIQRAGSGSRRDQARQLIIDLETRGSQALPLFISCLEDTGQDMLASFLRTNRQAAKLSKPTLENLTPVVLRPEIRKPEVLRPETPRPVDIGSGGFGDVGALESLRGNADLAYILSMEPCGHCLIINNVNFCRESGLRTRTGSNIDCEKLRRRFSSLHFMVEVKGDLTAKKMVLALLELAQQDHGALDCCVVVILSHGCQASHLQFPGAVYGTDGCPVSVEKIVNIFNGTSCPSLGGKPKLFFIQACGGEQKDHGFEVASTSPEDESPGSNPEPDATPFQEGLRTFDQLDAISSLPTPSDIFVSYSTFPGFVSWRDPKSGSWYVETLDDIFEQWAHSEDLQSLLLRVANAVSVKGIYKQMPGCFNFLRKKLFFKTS
Excerpt: as §1, §2, §3

[1] = system: recombinant caspases-3, 7, 8 and 9; test: Indirect competition with general probe KMB01 on individual recombinant caspases; settings: 100 nM caspase, inhibitor 30 min, then 5 μM KMB01 30 min; range of concentrations
Experimental: (a.) Indirect competition of a panel of inhibitors with the general caspase probe KMB01. Individual caspases-3, 7, 8 and 9 (100 nM each) were incubated with the indicated inhibitors for 30 minutes followed by a 30 minute incubation with KMB01. Samples were analyzed by SDS-PAGE and residual active site labeling was visualized by biotin blotting using streptavidin-HRP. (b.) Direct labeling of caspase active sites using specific ABPs. Equal amounts of active caspaseses-3, 8, and 9 ([…]) were incubated together with increasing concentrations of each of the indicated biotinylated active site probes for 30 minutes. Active site labeling was visualized by SDS-PAGE analysis followed by biotin blotting using streptavidin HRP. (*) Indicates labeling of the full-length form of caspase-3 that is only observed using recombinant enzyme preparations.
We initially focused on recombinant caspase3, 7, 8, and 9. Each caspase was individually pre-incubated with our optimal series of selective inhibitors at a range of concentrations and residual activity was measured by addition of the general caspase probe KMB01. Overall, the competition data mirrored the kinetic data with caspase-3 and 8-specific compounds showing specific competition of the desired target.
This was shown by analysis of inhibitor and probe selectivity by indirect competition and direct labeling of recombinant caspases. Indirect competition of a panel of inhibitors with the general caspase probe KMB01 was carried out with individual caspases-3, 7, 8 and 9 (100 nM each), which were incubated with the specific inhibitors for 30 minutes followed by a 30-minute incubation with KMB01. Samples were analyzed by SDS-PAGE and residual active site labeling was visualized by biotin blotting using streptavidin-HRP. Also, the direct labeling of caspase active sites was carried out using specific ABPs. Equal amounts of active caspaseses-3, 8, and 9 ([…]) were incubated together with increasing concentrations of each of the indicated biotinylated active site probes for 30 minutes. Active site labeling was visualized by SDS-PAGE analysis followed by biotin blotting using streptavidin HRP.
For all competition and direct labeling experiments recombinant caspases were pre-incubated in caspase reaction buffer for 15 minutes at 37° C. For competition experiments, 100 nM of active site titrated caspase was incubated for 30 minutes at 37° C. with appropriate inhibitor and then residual active sites were labeled with 5 μM KMB01 for an additional 30 minutes. For direct labeling, 100 nM caspase-3, 8, and 9 were incubated together in the presence of appropriate ABPs at the indicated concentrations for 30 min at 37° C.

Caspase-8, sequence (Q14790 217-479): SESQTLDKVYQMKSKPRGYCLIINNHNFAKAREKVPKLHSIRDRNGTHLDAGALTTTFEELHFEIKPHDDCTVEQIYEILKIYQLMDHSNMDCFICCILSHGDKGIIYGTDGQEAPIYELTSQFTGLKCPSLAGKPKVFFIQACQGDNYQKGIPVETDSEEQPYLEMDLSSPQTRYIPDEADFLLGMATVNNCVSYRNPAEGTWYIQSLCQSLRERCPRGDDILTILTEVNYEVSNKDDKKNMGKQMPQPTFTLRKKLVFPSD

CC[C@H](NC(=O)[C@@H](CCC(=O)O)NC(=O)c1ccccc1N)C(=O)N[C@@H](CC(=O)O)C(=O)COC(=O)c1c(C)cccc1C [AB28, NH2-6-E-8-D-DMBA]
Ki(app) Caspase-3 (Caspase-3): 1,020,213 M^−1s^−1 | Caspase-3 Ki(app) (Caspase-3): 1,020,213 M-1s-1 | Ki(app) Caspase-7 (Caspase-7): 272,619 M^−1s^−1 | Caspase-7 Ki (app) (Caspase-7): 272,619 M-1s-1 | Ki(app) Caspase-8 (Caspase-8): 817,077 M^−1s^−1 | Caspase-8 Ki (app) (Caspase-8): 817,077 M-1s-1 | Ki(app) Caspase-9 (Caspase-9): 300,767 M^−1s^−1 | Caspase-9 Ki (app) (Caspase-9): 300,767 M-1s-1 | competition for KMB01 labeling of recombinant caspases [1]: blocked labeling of all four caspases targets

Cc1cccc(C)c1C(=O)OCC(=O)[C@H](CC(=O)O)NC(=O)[C@H](C)NC(=O)[C@H](CC(C)C)NC(=O)C1CCCN1C(=O)Cc1ccc([N+](=O)[O-])c(O)c1 (stereo partly drawn) [AB38, Np-P-L- A-D-AOMK]
Ki(app) Caspase-3 (Caspase-3): 46,108 M^−1s^−1 | Caspase-3 Ki(app) (Caspase-3): 46,108 M-1s-1 | Ki(app) Caspase-7 (Caspase-7): 27,814 M^−1s^−1 | Caspase-7 Ki (app) (Caspase-7): 27,814 M-1s-1 | Ki(app) Caspase-8 (Caspase-8): 19,676 M^−1s^−1 | Caspase-8 Ki (app) (Caspase-8): 19,676 M-1s-1 | Ki(app) Caspase-9 (Caspase-9): 18,004 M^−1s^−1 | Caspase-9 Ki (app) (Caspase-9): 18,004 M-1s-1 | competition for KMB01 labeling of recombinant caspases [1]: minimal degree of selectivity for caspase-9 over caspase-8

CCC(C)C(NC(=O)Cc1ccc(O)c([N+](=O)[O-])c1)C(=O)N[C@@H](CC(C)C)C(=O)N[C@@H](C)C(=O)N[C@@H](CC(=O)O)C(=O)COC(=O)c1c(C)cccc1C (stereo partly drawn) [AB40, Np-I-L- A-D-AOMK]
Ki(app) Caspase-3 (Caspase-3): 261,470 M^−1s^−1 | Caspase-3 Ki(app) (Caspase-3): 261,470 M-1s-1 | Ki(app) Caspase-7 (Caspase-7): 11,256 M^−1s^−1 | Caspase-7 Ki (app) (Caspase-7): 11,256 M-1s-1 | Ki(app) Caspase-8 (Caspase-8): 35,174 M^−1s^−1 | Caspase-8 Ki (app) (Caspase-8): 35,174 M-1s-1 | Ki(app) Caspase-9 (Caspase-9): 48,867 M^−1s^−1 | Caspase-9 Ki (app) (Caspase-9): 48,867 M-1s-1 | competition for KMB01 labeling of recombinant caspases [1]: no specific inhibition

CCC(C)C(NC(=O)Cc1ccc(O)c([N+](=O)[O-])c1)C(=O)N[C@@H](CC(C)C)C(=O)N1CSCC1C(=O)N[C@@H](CC(=O)O)C(=O)COC(=O)c1c(C)cccc1C (stereo partly drawn) [AB41, Np-I-L-38-D-AOMK]
Ki(app) Caspase-3 (Caspase-3): 1,582,350 M^−1s^−1 | Caspase-3 Ki(app) (Caspase-3): 1,582,350 M-1s-1 | Ki(app) Caspase-7 (Caspase-7): 69,317 M^−1s^−1 | Caspase-7 Ki (app) (Caspase-7): 69,317 M-1s-1 | Ki(app) Caspase-8 (Caspase-8): 49,815 M^−1s^−1 | Caspase-8 Ki (app) (Caspase-8): 49,815 M-1s-1 | Ki(app) Caspase-9 (Caspase-9): 35,779 M^−1s^−1 | Caspase-9 Ki (app) (Caspase-9): 35,779 M-1s-1 | competition for KMB01 labeling of recombinant caspases [1]: no specific inhibition

CCC(C)C(NC(=O)Cc1ccc(O)c([N+](=O)[O-])c1)C(=O)NC(Cc1ccccc1)C(=O)N1CCCC1C(=O)N[C@@H](CC(=O)O)C(=O)COC(=O)c1c(C)cccc1C (stereo partly drawn) [AB42, NP-I-F- P-D-AOMK]
Ki(app) Caspase-3 (Caspase-3): 892,045 M^−1s^−1 | Caspase-3 Ki(app) (Caspase-3): 892,045 M-1s-1 | Ki(app) Caspase-7 (Caspase-7): 42,594 M^−1s^−1 | Caspase-7 Ki (app) (Caspase-7): 42,594 M-1s-1 | Ki(app) Caspase-8 (Caspase-8): 22,544 M^−1s^−1 | Caspase-8 Ki (app) (Caspase-8): 22,544 M-1s-1 | Ki(app) Caspase-9 (Caspase-9): 44,709 M^−1s^−1 | Caspase-9 Ki (app) (Caspase-9): 44,709 M-1s-1 | competition for KMB01 labeling of recombinant caspases [1]: minimal degree of selectivity for caspase-9 over caspase-8
